Series [1] can be described thus: Cell viability / cytotoxicity on MOLT-4 cells. It counts as cell-based. The settings on record: human, MOLT-4 cells; MOLT-4; Table 2 prints no unit; read-out: Cytotoxicity (CC50) MOLT-4, dose required to reduce 50% cell vitality. An excerpt:
(§1) Cell viability in the presence of the compounds has been determined by standard MTT assays.

Another series concerns MOLT-4. The series can be described thus: Cell viability / cytotoxicity on MOLT-4 cells. It counts as cell-based. The settings on record: MOLT-4 CC50 / antiviral EC50.
Excerpt: as §1

The nature of series [2]: Cell viability / cytotoxicity on PBMCs. Conditions: human; PBMCs; Table 2 prints no unit; read-out: Cytotoxicity (CC50) PBMCs, dose required to reduce 50% cell vitality. It counts as cell-based.
Excerpt: as §1

The next series relates to PBMCs. In words: Cell viability / cytotoxicity on PBMCs. Format: cell-based. The settings on record: PBMCs CC50 / antiviral EC50.
Excerpt: as §1

Series [3] is described as follows: Cell viability / cytotoxicity on HeLa cells. Format: cell-based. The settings on record: human, HeLa cells (cervical cancer cell line). How it is done:
as §1
(§2) Selected compounds from Table 1 were tested against the cervical cancer HeLa cell line for antiproliferative activity. Cell viability was measured with the CellTiter viability assay (Table 2). Table 3 lists the calculated antiproliferative potencies (EC50, dose required to suppress 50% of cell viability) for a series of representative compounds of the invention.

Another series relates to HeLa cells. In words: Cell viability / cytotoxicity on HeLa cells. It counts as cell-based. The settings on record: for Selectivity index HeLa, CC50/EC50: HeLa CC50 / antiviral EC50. As for the experimental part:
as §1, §2

The next series relates to HIV-1. In words: Antiviral assay, HIV-1 replication in infected PBMCs (viral RNA in supernatant). Format: cell-based. The settings on record: for EC50: Human immunodeficiency virus 1, PBMC; for viral RNA, multiple rounds of replication: PBMC, wild type HIV-1, 5 days post infection, FE15 50 μM, FE66 (35b) 5 μM. As for the experimental part:
(§3) FIG. 1. A) Antiviral activity (expressed as % of viral load with respect to the control) of compounds FE56 and FE66 at 0.3 μM and 3 μM doses against single round HIV-1 replication in HeLaCD4+ cells infected with a wild type HIV-1 strain. Measurements were performed at 72 h post infection. B) Antiviral activity of compounds FE15 and FE66 on HIV-1 replication in phytohemagglutinin-stimulated peripheral blood mononuclear cells (PBMCs) […] with HeLa CD4^+-cell culture supernatants containing wild type HIV. Compounds were tested at 50 μM (FE15) and 5 μM (FE66). The HIV-1 RNA was quantified in the cell culture supernatant after 3, and 5 days of incubation. Results are expressed as HIV RNA copies/ml. Control (white bars).
FIG. 2. Antiviral activity of DDX3 inhibitors. A) Comparison of the antiviral activity (expressed as % of viral RNA with respect to the control) on infected PBMCs of a fixed dose of selected inhibitors. Measurements were performed at 72 h post infection. Values are the means of three independent replicates. Error bars are ±SD. White bars: control without drugs; dark grey bar: positive control with AZT (0.01 μM); black bar: first generation inhibitor FE15 (50 μM); light grey bars: second generation DDX3 inhibitors FE66, 11d and 38 (3 μM). B) Dose-response curves for the inhibiton of HIV-1 replication (expressed as % of viral RNA with respect to the control) in infected PBMCs by FE15 (circles) and 38 (triangles). Measurements were performed at 72 h post infection. Values are the means of three independent replicates. Error bars are ±SD.
In detail, 0.5 μg of each HIV-1 plasmid construct was transfected into CD4 HeLa cells by using the lipofectin reagent, according to the recommendations of the manufacturer (Invitrogen, Groningen, The Netherlands). After 3 days of incubation at 37° C., the cell supernatants, which contained reconstituted viable recombinant viruses, were collected. Quantification of the newly produced recombinant strains was obtained by determination of the HIV RNA copy number in the cell culture supernatants. Successively, 10 ml of transfected HeLa CD4^+-cell culture supernatants containing wild-type, and mutated recombinant HIV strain […], was used to infect aliquots of 10×10^6 phytohemagglutinin-stimulated peripheral blood mononuclear cells (PBMCs) from HIV-seronegative blood donors. After 4 h of incubation, supernatants were removed and infected PBMCs were incubated at 37° C. in 10 ml of RPMI 1640 medium (Eurobio, Les Ulis Cedex B, France) supplemented with 20% fetal calf serum (Life Technologies, Ltd., Paisley, Scotland), 2 mM l-glutamine, 100 U of penicillin per ml, 100 μg of streptomycin per ml, 10% interleukin-2 (ZeptoMetrix Co., Buffalo, N.Y.), 5 μg of hydrocortisone (Sigma Chemical Co.) per ml and with fourfold dilutions of antiretroviral drugs. No-drug controls for each drug dilution were included in each assay. After 3, 5 and 7 days of incubation the HIV-1 RNA in the cell culture supernatant was quantified. Recombinant HIV-1 strains from treatment-naive patients and multidrug resistance-associated changes were assayed in parallel. The degree of inhibition of viral replication was measured by determining the HIV-1 RNA level in the supernatants of cell cultures and was expressed as the fold increase in the 50% inhibitory concentrations (IC50s) for resistant recombinant HIV-1 variants compared with the IC50s for the wild-type recombinant variant. Each test was performed in triplicate.

The test system of series [4] is cervical cancer HeLa cell line. The series can be described thus: Antiproliferative activity against HeLa cells (CellTiter viability assay). Conditions: Homo sapiens. It counts as cell-based. As for the experimental part:
as §2

Series [5] deals with T1, human DDX3 (ATPase activity) (Homo sapiens, UniProt O00571).
T1 construct: made in house; host or cells: E. coli
T1 sequence (O00571 whole entry): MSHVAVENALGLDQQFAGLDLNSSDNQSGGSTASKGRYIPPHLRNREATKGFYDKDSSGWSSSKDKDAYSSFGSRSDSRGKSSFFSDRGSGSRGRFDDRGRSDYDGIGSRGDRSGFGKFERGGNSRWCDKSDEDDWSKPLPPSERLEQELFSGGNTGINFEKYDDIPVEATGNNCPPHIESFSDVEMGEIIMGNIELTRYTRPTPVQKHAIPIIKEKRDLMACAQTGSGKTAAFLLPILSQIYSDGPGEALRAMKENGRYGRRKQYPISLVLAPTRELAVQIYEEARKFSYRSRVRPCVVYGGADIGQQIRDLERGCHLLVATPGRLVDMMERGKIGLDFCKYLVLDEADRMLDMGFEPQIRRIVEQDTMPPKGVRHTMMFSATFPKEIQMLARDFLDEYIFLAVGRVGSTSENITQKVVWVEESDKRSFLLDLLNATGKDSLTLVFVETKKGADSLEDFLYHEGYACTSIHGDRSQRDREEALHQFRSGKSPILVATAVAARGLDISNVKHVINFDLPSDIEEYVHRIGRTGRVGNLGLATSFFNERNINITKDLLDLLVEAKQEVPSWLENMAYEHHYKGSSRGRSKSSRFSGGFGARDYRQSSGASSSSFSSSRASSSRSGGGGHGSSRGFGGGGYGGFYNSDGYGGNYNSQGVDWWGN
In words: Human DDX3 ATPase activity assay (luciferase-based luminescence). It counts as biochemical. Conditions: DDX3 ATPase activity; read-out: Ki (μM), apparent equilibrium dissociation constant for the inhibitor to the target enzyme DDX3. As for the experimental part:
ATPase activity was tested with a luciferase-based luminescence assay (Easylite-Kinase, Perkin Elmer) on 96 wells microtiter plates. Briefly, recombinant purified human DDX3 (50-100 ng) was incubated in a 15 μL total reaction volume with reaction buffer (25 mM TrisHCl pH 7.5, 5 mM MgCl2), in the presence of increasing amounts of ATP and/or different combinations of ATP and the inhibitor to be tested. Reference curves in the absence of inhibitor (giving the 100% of enzymatic activity) and in the absence of enzyme (giving the baseline), were also included in each experiment. Reading was performed with a Microbeta Trilux (Perkin Elmer) luminometer, according to the manufacturer's protocol.
ATPase reactions were performed as described, in the presence of increasing amounts of inhibitor and variable ATP concentrations. Variations of the initial velocities of the reaction as a function of ATP concentrations in the absence or presence of 4 were analyzed with the equation: […]
Variation of the % inhibition as a function of compound FE15 at different ATP concentrations were fitted to the equation for cooperative binding: […]
where Vmax is the apparent maximal rate of the reaction in the absence of the inhibitor, [I] is the variable inhibitor concentration, n is the cooperativity index and Ki(app) is the apparent inhibition constant. Comparatively, fitting was done with the same Eq. (2) where n was kept fixed at the value of 1 (non-cooperativity hypothesis). F test was used to compare the two fittings and p value was calculated.
Human recombinant DDX3 was cloned, expressed and purified as described (Franca et al. Proteins 2007, 67, 1128-37).
The anti-DDX3 activity of the compounds of the invention was evaluated by in vitro ATPase activity assay using the recombinant human DDX3 protein produced in E. coli. The potency of inhibition (Ki) for each molecule was calculated, representing the concentration of the inhibitor able to reduce the DDX3 ATPase activity by 50%

A further series relates to wild type HIV-1 strain. The series can be described thus: HIV-1 single round replication in HeLaCD4+ cells. It counts as cell-based. Conditions: wild type HIV-1, 0.3 μM and 3 μM doses, 72 h post infection. As for the experimental part:
as §3
Selected compounds from Table 1 were tested against HIV-1 replication in two different model systems.

Setting [6] is: HeLa, Table 2 prints no unit, text gives μM, read-out: Cytotoxicity (CC50) HeLa, dose required to reduce 50% cell vitality.
[7] abbreviates: 72 h, read-out: EC50, anti-HIV activity.
Setting [8] is: read-out: Antiviral activity, dose required to reduce 50% viral proliferation (measured as viral RNA load).

Read-outs that look alike come from different tables or passages of the source.

As to `O=C(CCN1C(=O)/C(=C/c2cccc(F)c2)SC1=S)Nc1ccccc1O` [Compound 35b, 3-((Z)-5-(3-Fluorobenzylidene)-4-oxo-2-thioxothiazolidin-3-yl)-N-(2-hydroxyphenyl) propanamide], the melting point fell in the range of 210 to 211 °C. Also, in series [1], the CC50 was found to be 50 ± 10 µM. Also, in the series on MOLT-4, the “Selectivity index MOLT-4, CC50/EC50” value was found to be 6.7. For the same compound, the CC50 in [2] is 50 ± 5 µM. Moreover, the “Selectivity index PBMCs, CC50/EC50” value with PBMCs worked out at 6.7. The 50% cytotoxic concentration (CC50) in series [3] (setting [6]) worked out at 50 ± 5 µM. Further, the “Selectivity index HeLa, CC50/EC50” value with HeLa cells is 6.7. The EC50 in the series with HIV-1 (setting [7]) came out at 7.5 µM. For the same compound, in the series on HIV-1 (setting [8]), the EC50 stood at 7.5 ± 0.7 µM. Moreover, the “viral RNA, multiple rounds of replication” value in the series on HIV-1 is on record as “significant reduction of viral RNA”. In addition, the EC50 in [4] (48 hours, read-out: EC50 (μM) 48 hours, dose required to suppress 50% of cell viability) is 50 µM. In addition, the EC50 in series [4] (72 hours, read-out: EC50 (μM) 72 hours, dose required to suppress 50% of cell viability) was 10 µM. For the same compound, the Ki in [5] turned out to be 0.3 µM. Moreover, the “viral load (viral RNA copies), single-round replication” value in the series with wild type HIV-1 strain is listed as “dose-dependent reduction of viral load”.

With `Oc1ccccc1/C=N/Nc1nc(Nc2ccc(F)cc2)nc(Nc2ccc(F)cc2)n1` [Compound 38, (E)-2-((2-(4,6-bis(4-Fluorophenylamino)-1,3,5-triazin-2-yl)hydrazono)methyl)phenol], the CC50 in [1] amounted to 10 ± 1 µM; in series [2], 8 ± 0.5 µM; in [3] (setting [6]), 20 ± 2 µM. The “Selectivity index MOLT-4, CC50/EC50” value in the series on MOLT-4 came to 5.0. Also, in the series on PBMCs, the “Selectivity index PBMCs, CC50/EC50” value is reported as 4.0. Moreover, the “Selectivity index HeLa, CC50/EC50” value in the series with HeLa cells worked out at 10. Further, the “fold higher antiviral potency than the inhibitor FE15” value in the series with HIV-1 (HIV-1 infected PBMCs, ratio of EC50) is 41 fold. For the same compound, the EC50 in the series with HIV-1 (setting [7]) is 2 µM; with HIV-1 (setting [8]), 2 ± 0.2 µM. For the same compound, in series [5], the Ki was found to be 0.1 µM.

As for `O=C(CCN1C(=O)/C(=C/c2cccc(Br)c2)SC1=S)Nc1ccccc1O` [FE-15, (Z)-3-(5-(3-Bromobenzylidene)-4-oxo-2-thioxothiazolidin-3-yl)-N-(2-hydroxyphenyl)propanamide], the melting point was 222 to 224 °C. Further, the CC50 in series [1] is above 200 µM. For the same compound, the “Selectivity index MOLT-4, CC50/EC50” value in the series on MOLT-4 stood at 2.4. The CC50 in [2] is above 150 µM. In addition, in the series on PBMCs, the “Selectivity index PBMCs, CC50/EC50” value is on record as 1.8. Besides, the CC50 in [3] (read-out: CC50, cytotoxicity on HeLa cells) is above 200 µM. Besides, the “Selectivity index HeLa, CC50/EC50” value in the series with HeLa cells was determined as 2.4. Moreover, the CC50 in the series on HeLa cells (setting [6]) is above 200 µM. Moreover, in the series with HIV-1 (HIV-1 infected PBMCs, compound at 50 μM, 72 h post infection), the “reduction of viral load compared with 11d and 38 at 3 μM” value is “comparable effects”. The EC50 in the series on HIV-1 (setting [7]) came to 83 µM. In addition, the EC50 in the series on HIV-1 (setting [8]) worked out at 83 ± 7 µM. Moreover, in the series with HIV-1, the “viral RNA, multiple rounds of replication” value is reported as “significant reduction of viral RNA”. Also, in series [5], the Ki was found to be 4.5 µM.

In the case of `O=C1Nc2ccccc2/C1=N/Nc1nc(Nc2ccccc2)nc(Nc2ccccc2)n1` [FE-56], in series [5], the Ki amounted to 0.4 µM. For the same compound, the “viral load (viral RNA copies), single-round replication” value in the series on wild type HIV-1 strain is on record as “dose-dependent reduction of viral load”.

The values above are taken from patent US20120202814A1, “COMPOUNDS WITH DDX3 INHIBITORY ACTIVITY AND USES THEREOF” (UNIVERSITÀ DEGLI STUDI DI SIENA, priority 2009, published 2012).
